# Laboratory results taken from the NIST ThermoML archive (doi:10.1016/j.fluid.2012.09.007).
# Numbers after ± are expanded uncertainties.
# Assay: xn = mol fraction of the nth substance listed
# Conditions: 101 kPa, Liquid, Vibrating tube method
structure (smiles),measurement,setting,value
"CC(C)CC(C)(C)C [2,2,4-trimethylpentane] + c1ccccc1",mass density,"298.15 K, x2 = 0",687.69 ± 0.18 kg/m3
same,mass density,"298.15 K, x2 = 0.06106",693.48 ± 0.18 kg/m3
same,mass density,"298.15 K, x2 = 0.1418",701.74 ± 0.17 kg/m3
same,mass density,"298.15 K, x2 = 0.2015",708.37 ± 0.17 kg/m3
same,mass density,"298.15 K, x2 = 0.2685",716.35 ± 0.17 kg/m3
same,mass density,"298.15 K, x2 = 0.3382",725.38 ± 0.16 kg/m3
same,mass density,"298.15 K, x2 = 0.399",733.9 ± 0.16 kg/m3
same,mass density,"298.15 K, x2 = 0.4639",743.77 ± 0.16 kg/m3
same,mass density,"298.15 K, x2 = 0.5179",752.66 ± 0.15 kg/m3
same,mass density,"298.15 K, x2 = 0.5986",767.18 ± 0.15 kg/m3
same,mass density,"298.15 K, x2 = 0.6562",778.61 ± 0.14 kg/m3
same,mass density,"298.15 K, x2 = 0.7257",793.77 ± 0.14 kg/m3
same,mass density,"298.15 K, x2 = 0.7993",811.66 ± 0.13 kg/m3
same,mass density,"298.15 K, x2 = 0.871",831.31 ± 0.13 kg/m3
same,mass density,"298.15 K, x2 = 0.9483",855.37 ± 0.12 kg/m3
same,mass density,"308.15 K, x2 = 0",679.5 ± 0.18 kg/m3
same,mass density,"308.15 K, x2 = 0.07837",686.91 ± 0.18 kg/m3
same,mass density,"308.15 K, x2 = 0.139",693.09 ± 0.18 kg/m3
same,mass density,"308.15 K, x2 = 0.2112",701.03 ± 0.17 kg/m3
same,mass density,"308.15 K, x2 = 0.2701",707.99 ± 0.17 kg/m3
same,mass density,"308.15 K, x2 = 0.3244",714.88 ± 0.17 kg/m3
same,mass density,"308.15 K, x2 = 0.3912",723.99 ± 0.16 kg/m3
same,mass density,"308.15 K, x2 = 0.4607",734.35 ± 0.16 kg/m3
same,mass density,"308.15 K, x2 = 0.5319",745.93 ± 0.15 kg/m3
same,mass density,"308.15 K, x2 = 0.6019",758.53 ± 0.15 kg/m3
same,mass density,"308.15 K, x2 = 0.6669",771.38 ± 0.14 kg/m3
same,mass density,"308.15 K, x2 = 0.7335",785.91 ± 0.14 kg/m3
same,mass density,"308.15 K, x2 = 0.7944",800.56 ± 0.13 kg/m3
same,mass density,"308.15 K, x2 = 0.8662",819.8 ± 0.13 kg/m3
same,mass density,"308.15 K, x2 = 0.9302",839.08 ± 0.12 kg/m3
same,mass density,"318.15 K, x2 = 0",671.34 ± 0.19 kg/m3
same,mass density,"318.15 K, x2 = 0.07013",677.83 ± 0.18 kg/m3
same,mass density,"318.15 K, x2 = 0.1336",684.16 ± 0.18 kg/m3
same,mass density,"318.15 K, x2 = 0.2025",691.56 ± 0.18 kg/m3
same,mass density,"318.15 K, x2 = 0.272",699.64 ± 0.17 kg/m3
same,mass density,"318.15 K, x2 = 0.3457",708.99 ± 0.17 kg/m3
same,mass density,"318.15 K, x2 = 0.4011",716.6 ± 0.17 kg/m3
same,mass density,"318.15 K, x2 = 0.466",726.21 ± 0.16 kg/m3
same,mass density,"318.15 K, x2 = 0.535",737.39 ± 0.16 kg/m3
same,mass density,"318.15 K, x2 = 0.5941",747.85 ± 0.15 kg/m3
same,mass density,"318.15 K, x2 = 0.6592",760.41 ± 0.15 kg/m3
same,mass density,"318.15 K, x2 = 0.7319",775.94 ± 0.14 kg/m3
same,mass density,"318.15 K, x2 = 0.7981",791.66 ± 0.14 kg/m3
same,mass density,"318.15 K, x2 = 0.8656",809.56 ± 0.13 kg/m3
same,mass density,"318.15 K, x2 = 0.9321",829.34 ± 0.12 kg/m3
c1ccccc1 [benzene] + CC(C)CC(C)(C)C,mass density,"298.15 K, x1 = 1",873.52 ± 0.11 kg/m3
same,mass density,"308.15 K, x1 = 1",862.84 ± 0.11 kg/m3
same,mass density,"318.15 K, x1 = 1",852.18 ± 0.11 kg/m3
c1ccccc1 [benzene] + CCC(C)(C)OC,mass density,"298.15 K, x1 = 1",873.53 ± 0.11 kg/m3
same,mass density,"308.15 K, x1 = 1",862.85 ± 0.11 kg/m3
same,mass density,"318.15 K, x1 = 1",852.18 ± 0.11 kg/m3
CCC(C)(C)OC [2-methoxy-2-methylbutane] + CC(C)CC(C)(C)C,mass density,"298.15 K, x1 = 0.06668",691.73 ± 0.16 kg/m3
same,mass density,"298.15 K, x1 = 0.1334",695.93 ± 0.16 kg/m3
same,mass density,"298.15 K, x1 = 0.2065",700.7 ± 0.17 kg/m3
same,mass density,"298.15 K, x1 = 0.2712",705.05 ± 0.18 kg/m3
same,mass density,"298.15 K, x1 = 0.3376",709.68 ± 0.19 kg/m3
same,mass density,"298.15 K, x1 = 0.3977",713.99 ± 0.2 kg/m3
same,mass density,"298.15 K, x1 = 0.4666",719.11 ± 0.22 kg/m3
same,mass density,"298.15 K, x1 = 0.527",723.75 ± 0.24 kg/m3
same,mass density,"298.15 K, x1 = 0.5952",729.17 ± 0.26 kg/m3
same,mass density,"298.15 K, x1 = 0.6668",735.06 ± 0.29 kg/m3
same,mass density,"298.15 K, x1 = 0.7314",740.58 ± 0.32 kg/m3
same,mass density,"298.15 K, x1 = 0.7975",746.43 ± 0.36 kg/m3
same,mass density,"298.15 K, x1 = 0.8616",752.31 ± 0.39 kg/m3
same,mass density,"298.15 K, x1 = 0.9325",759.06 ± 0.44 kg/m3
same,mass density,"298.15 K, x1 = 1",765.77 ± 0.49 kg/m3
same,mass density,"308.15 K, x1 = 0.06672",683.48 ± 0.16 kg/m3
same,mass density,"308.15 K, x1 = 0.1383",687.9 ± 0.17 kg/m3
same,mass density,"308.15 K, x1 = 0.2056",692.2 ± 0.17 kg/m3
same,mass density,"308.15 K, x1 = 0.2684",696.36 ± 0.18 kg/m3
same,mass density,"308.15 K, x1 = 0.3406",701.28 ± 0.19 kg/m3
same,mass density,"308.15 K, x1 = 0.401",705.55 ± 0.2 kg/m3
same,mass density,"308.15 K, x1 = 0.4585",709.75 ± 0.22 kg/m3
same,mass density,"308.15 K, x1 = 0.5291",715.06 ± 0.24 kg/m3
same,mass density,"308.15 K, x1 = 0.5953",720.24 ± 0.26 kg/m3
same,mass density,"308.15 K, x1 = 0.6632",725.74 ± 0.29 kg/m3
same,mass density,"308.15 K, x1 = 0.7339",731.67 ± 0.32 kg/m3
same,mass density,"308.15 K, x1 = 0.7946",736.96 ± 0.35 kg/m3
same,mass density,"308.15 K, x1 = 0.8646",743.27 ± 0.39 kg/m3
same,mass density,"308.15 K, x1 = 0.9319",749.58 ± 0.44 kg/m3
same,mass density,"308.15 K, x1 = 1",756.19 ± 0.48 kg/m3
same,mass density,"318.15 K, x1 = 0.06682",675.24 ± 0.17 kg/m3
same,mass density,"318.15 K, x1 = 0.1368",679.49 ± 0.17 kg/m3
same,mass density,"318.15 K, x1 = 0.1974",683.27 ± 0.17 kg/m3
same,mass density,"318.15 K, x1 = 0.2673",687.79 ± 0.18 kg/m3
same,mass density,"318.15 K, x1 = 0.3375",692.5 ± 0.19 kg/m3
same,mass density,"318.15 K, x1 = 0.401",696.91 ± 0.21 kg/m3
same,mass density,"318.15 K, x1 = 0.4676",701.69 ± 0.22 kg/m3
same,mass density,"318.15 K, x1 = 0.5324",706.5 ± 0.24 kg/m3
same,mass density,"318.15 K, x1 = 0.5984",711.56 ± 0.26 kg/m3
same,mass density,"318.15 K, x1 = 0.6593",716.41 ± 0.29 kg/m3
same,mass density,"318.15 K, x1 = 0.7309",722.32 ± 0.32 kg/m3
same,mass density,"318.15 K, x1 = 0.7982",728.08 ± 0.35 kg/m3
same,mass density,"318.15 K, x1 = 0.8669",734.18 ± 0.39 kg/m3
same,mass density,"318.15 K, x1 = 0.932",740.18 ± 0.43 kg/m3
same,mass density,"318.15 K, x1 = 1",746.69 ± 0.48 kg/m3
CCC(C)(C)OC [2-methoxy-2-methylbutane] + c1ccccc1,mass density,"298.15 K, x2 = 0",765.79 ± 1.2 kg/m3
same,mass density,"298.15 K, x2 = 0.06414",770.46 ± 1.1 kg/m3
same,mass density,"298.15 K, x2 = 0.1353",775.9 ± 0.97 kg/m3
same,mass density,"298.15 K, x2 = 0.2019",781.23 ± 0.87 kg/m3
same,mass density,"298.15 K, x2 = 0.2693",786.88 ± 0.76 kg/m3
same,mass density,"298.15 K, x2 = 0.3352",792.67 ± 0.67 kg/m3
same,mass density,"298.15 K, x2 = 0.4021",798.87 ± 0.58 kg/m3
same,mass density,"298.15 K, x2 = 0.4653",805.02 ± 0.5 kg/m3
same,mass density,"298.15 K, x2 = 0.5342",812.08 ± 0.43 kg/m3
same,mass density,"298.15 K, x2 = 0.6022",819.46 ± 0.36 kg/m3
same,mass density,"298.15 K, x2 = 0.6671",826.93 ± 0.3 kg/m3
same,mass density,"298.15 K, x2 = 0.7367",835.44 ± 0.24 kg/m3
same,mass density,"298.15 K, x2 = 0.7973",843.32 ± 0.2 kg/m3
same,mass density,"298.15 K, x2 = 0.8665",852.89 ± 0.16 kg/m3
same,mass density,"298.15 K, x2 = 0.9336",862.89 ± 0.13 kg/m3
same,mass density,"308.15 K, x2 = 0",756.23 ± 1.2 kg/m3
same,mass density,"308.15 K, x2 = 0.06701",761.09 ± 1.1 kg/m3
same,mass density,"308.15 K, x2 = 0.1338",766.17 ± 0.96 kg/m3
same,mass density,"308.15 K, x2 = 0.2009",771.51 ± 0.85 kg/m3
same,mass density,"308.15 K, x2 = 0.2672",777.02 ± 0.76 kg/m3
same,mass density,"308.15 K, x2 = 0.3336",782.8 ± 0.66 kg/m3
same,mass density,"308.15 K, x2 = 0.4024",789.11 ± 0.57 kg/m3
same,mass density,"308.15 K, x2 = 0.4715",795.77 ± 0.49 kg/m3
same,mass density,"308.15 K, x2 = 0.5344",802.18 ± 0.42 kg/m3
same,mass density,"308.15 K, x2 = 0.6008",809.31 ± 0.36 kg/m3
same,mass density,"308.15 K, x2 = 0.6685",816.98 ± 0.3 kg/m3
same,mass density,"308.15 K, x2 = 0.7345",824.97 ± 0.24 kg/m3
same,mass density,"308.15 K, x2 = 0.7995",833.32 ± 0.2 kg/m3
same,mass density,"308.15 K, x2 = 0.8625",841.93 ± 0.16 kg/m3
same,mass density,"308.15 K, x2 = 0.9344",852.47 ± 0.13 kg/m3
same,mass density,"318.15 K, x2 = 0",746.71 ± 1.2 kg/m3
same,mass density,"318.15 K, x2 = 0.06757",751.58 ± 1.1 kg/m3
same,mass density,"318.15 K, x2 = 0.1346",756.63 ± 0.94 kg/m3
same,mass density,"318.15 K, x2 = 0.2014",761.91 ± 0.84 kg/m3
same,mass density,"318.15 K, x2 = 0.269",767.5 ± 0.74 kg/m3
same,mass density,"318.15 K, x2 = 0.3371",773.39 ± 0.65 kg/m3
same,mass density,"318.15 K, x2 = 0.4031",779.4 ± 0.57 kg/m3
same,mass density,"318.15 K, x2 = 0.4661",785.42 ± 0.49 kg/m3
same,mass density,"318.15 K, x2 = 0.5339",792.26 ± 0.42 kg/m3
same,mass density,"318.15 K, x2 = 0.6012",799.41 ± 0.35 kg/m3
same,mass density,"318.15 K, x2 = 0.6679",806.93 ± 0.3 kg/m3
same,mass density,"318.15 K, x2 = 0.7346",814.9 ± 0.24 kg/m3
same,mass density,"318.15 K, x2 = 0.7994",823.13 ± 0.2 kg/m3
same,mass density,"318.15 K, x2 = 0.8645",831.93 ± 0.16 kg/m3
same,mass density,"318.15 K, x2 = 0.9333",841.85 ± 0.13 kg/m3
"CC(C)CC(C)(C)C [2,2,4-trimethylpentane] + CCC(C)(C)OC",mass density,"298.15 K, x2 = 0",687.68 ± 0.16 kg/m3
same,mass density,"308.15 K, x2 = 0",679.48 ± 0.16 kg/m3
same,mass density,"318.15 K, x2 = 0",671.34 ± 0.16 kg/m3
